The nature of this data set: Pharmacokinetics screening in rats (biliary and urinary excretion, residual tissue content of gadolinium by ICP-AES). The settings on record: for Biliary % of the injected dose / Urinary % of the injected dose: anaesthetised CD(SD)BR male rats, i.v. 0.1 mmol/kg. The data set is classed as in vivo. The procedure:
The experimentation was performed with the complex compound of example 1.
The screening was performed in 3 anaesthetised CD(SD)BR male rats (Charles River Italia).
The animals were maintained according to EEC Council Directive […] as included in Italian law DL116/92 (experimental typology KIN 3).
The contrast agent was injected in the vena saphena at the single dose of 0.1 mmol.kg^−1, injection rate of 6 mL-min^−1.
After the administration of the complex compound, the collection of the biological fluids in the anaesthetised rats was performed by cannulation of urinary bladder and biliary duct. The urine was collected at 0 to 60, 60 to 120, 120 to 240, 240 to 480 min after injection; the bile at −30 to 0, 0 to 15, 15 to 30, 30 to 60, 60 to 120, 120 to 240, 240 to 480 min after injection.
Animals were killed at the end of the studies by exanguination from abdominal aorta.
Blood, liver and kidneys were collected after the sacrifice for the assay of gadolinium by inductively coupled plasma atomic emission ICP-AES.

The mark [1] stands for this setting: anaesthetised rats, intravenous, 0 to 480 min period.
[2] abbreviates: anaesthetised rats, intravenous, at 480 min after administration.

As for “Gadolinium complex of [3α[3(S),4(S)],5β,12α]-3-[[[trans-3,4-bis[[[5-[bis[2-[bis(carboxymethyl)amino]ethyl]amino]-5-carboxypentyl]amino]carbonyl]-1-pyrrolidinyl]carbonyl]oxy]-12-hydroxycholan-24-oic acid salified with sodium (1:5) [Example 1]”, the “Biliary % of the injected dose” value is 0.0102 ± 0.0010 % of the injected dose (collection time 0 to 15 min); 0.0208 ± 0.0012 % of the injected dose (collection time 0 to 30 min); 0.0374 ± 0.0023 % of the injected dose (collection time 0 to 60 min); 0.0561 ± 0.0052 % of the injected dose (collection time 0 to 120 min); 0.0950 ± 0.0073 % of the injected dose (collection time 0 to 240 min); 0.175 ± 0.020 % of the injected dose (collection time 0 to 480 min). Besides, the “Urinary % of the injected dose” value (collection time 0 to 60 min) is on record as 11.2 ± 4.6 % of the injected dose, the “Urinary % of the injected dose” value (collection time 0 to 120 min) is listed as 18.6 ± 5.0 % of the injected dose, the “Urinary % of the injected dose” value (collection time 0 to 240 min) was 27.9 ± 5.3 % of the injected dose and the “Urinary % of the injected dose” value (collection time 0 to 480 min) is 36.2 ± 2.7 % of the injected dose. The biliary excretion under setting [1] is listed as 0.175 % of ID. Besides, under setting [1], the urinary excretion is listed as 36 % of ID. Moreover, the “residual content in kidney” value under setting [2] is 6.7 % of the injected dose. Moreover, the “residual content in liver” value under setting [2] is 2.564 % of the injected dose. Besides, the “residual content in plasma” value under setting [2] is reported as 14.3 % of the injected dose.
